Reference: patent US9044483B2, “Cell death inhibition by macrophage migration inhibitory factor and a binding substance thereto” (Takeda Pharmaceuticals Company Limited, priority 2006, dated 2015)

Tests used:
rat MIF = biological target: T1, rat MIF (Rattus norvegicus, UniProt P30904, G111N); test: Binding to rat MIF by surface plasmon resonance (BIACORE 3000), compound immobilized on sensor chip CM5; conditions: 1 μg/ml rat MIF in PBS with 0.005% Tween 20, FIG. 1, FIG. 4
T1 construct: made in house; host or cells: Escherichia coli BL21 (DE3)
Procedure: The binding of rat MIF obtained in REFERENCE EXAMPLE 2 to Compound A (cf., EXAMPLE 107 of WO 03/020719; see the formula below) was analyzed by BIACORE 3000 (manufactured by Biacore Co., Ltd.).
(§1) After Compound A was immobilized onto a sensor chip CM5 (manufactured by Biacore Co., Ltd.), phosphate buffered saline containing 0.005% Tween 20 containing 1 μg/ml of rat MIF was passed over the chip to assess changes in surface plasmon resonance signal as the binding of the compound to rat MIF.
as §1, with “The binding of rat MIF obtained in REFERENCE EXAMPLE 2 to” for “After”, “C (see the formula below) was analyzed by BIACORE 3000 (manufactured by Biacore Co., Ltd.). In a manner similar to EXPERIMENT 1(1), Compound C” for “A”, “Ltd.) and then,” for “Ltd.),”

hMIF-P1S = biological target: T2, hMIF-P1S (Homo sapiens, UniProt P14174); test: Binding of modified human MIF (hMIF-P1S) to immobilized Compound A by BIACORE 3000; conditions: 10 μg/ml hMIF or hMIF-P1S in HBS-EP buffer, FIG. 2
T2 construct: the region encoding MIF was amplified from human complementary DNA (cDNA) library; made in house; host or cells: Escherichia coli BL21 (DE3)
T2 sequence (P14174 with tags, fused parts or gaps): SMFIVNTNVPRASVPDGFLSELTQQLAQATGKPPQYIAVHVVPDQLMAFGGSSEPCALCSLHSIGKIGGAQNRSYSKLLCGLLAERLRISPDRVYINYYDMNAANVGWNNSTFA
Procedure: The binding of human MIF (hMIF) and modified human MIF (hMIF-P1S) obtained in REFERENCE EXAMPLE 1 to Compound A was analyzed by BIACORE 3000 (manufactured by Biacore Co., Ltd.).
(§2) After Compound A was immobilized onto a sensor chip CM5 (manufactured by Biacore Co., Ltd.), HBS-EP buffer (manufactured by Biacore Co., Ltd.) containing 10 μg/ml of hMIF or hMIF-P1S was passed over the chip to assess changes in surface plasmon resonance signal as the binding of the compound to human MIF.

His-hMIF = biological target: T3, His-hMIF (Homo sapiens, UniProt P14174); test: Binding of His-hMIF (peptide added to N terminus) to immobilized Compound A by BIACORE 3000; conditions: FIG. 5
T3 construct: the region encoding MIF was amplified from human complementary DNA (cDNA) library; made in house; host or cells: Escherichia coli BL21 (DE3)
T3 sequence (P14174 with tags, fused parts or gaps): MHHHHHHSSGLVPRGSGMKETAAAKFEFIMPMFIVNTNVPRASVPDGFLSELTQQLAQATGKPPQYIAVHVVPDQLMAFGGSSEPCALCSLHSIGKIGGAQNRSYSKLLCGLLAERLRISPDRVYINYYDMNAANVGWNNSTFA
Procedure: as §2
Similarly, the binding of Compound A to His-hMIF added with the peptide to its N terminus, obtained in REFERENCE EXAMPLE 3, was analyzed.

binding of the compound to rat MIF (changes in surface plasmon resonance signal) (rat MIF) | binding ability of Compound A to human MIF with N-terminal proline replaced by serine (hMIF-P1S), compared with hMIF (hMIF-P1S) | binding ability of Compound A to human MIF with 30 amino acid-polypeptide containing histidine tag added to the N terminus (His-hMIF), compared with hMIF (His-hMIF) | SMILES
strongly binds | greatly attenuated | greatly attenuated | NCCCCCCNC(=O)c1cccc(-c2nc(=O)c3ccccc3s2)n1 [Compound A, N-(6-aminohexyl)-6-(4-oxo-4H-1,3-benzothiazin-2-yl)-2-pyridinecarboxamide]
weaker than that of Compound A |  |  | Cc1cccc2c(=O)nc(-c3cccc(C(=O)NCCCCCCN)n3)sc12 [Compound C, N-(6-aminohexyl)-6-(8-methyl-4-oxo-4H-1,3-benzothiazin-2-yl)pyridine-2 carboxamide]
